Counter-ions that a name gives are not always drawn.
Key:
[1] = system: pentobarbital anaesthetized rats; conditions: rat, in vivo
[2] = system: pentobarbital anaesthetized rats subject to coronary artery occlusion; conditions: rat, in vivo

C=CCN1CC[C@]23c4c5ccc(O)c4O[C@H]2C(=O)CC[C@@]3(O)[C@H]1C5 [naloxone, naloxone hydrochloride]
BP [1]: 103±5 | HR [1]: 379±6 | PR [1]: 57±1 | QRS [1]: 29±1 | QT [1]: 41±1 | incidence of VF arrhythmias [2]: slightly decreased

Reference: patent publication EP0632806B1 (priority 1992, dated 1993)
